Molecules are shown by their SMILES. Where a name gives a salt, the structure may show the parent alone.

Series [1] concerns the target T1, FPPS (Farnesyl pyrophosphate synthase) (Homo sapiens, UniProt P14324).
T1 sequence (P14324 1-353 isoform P14324-2): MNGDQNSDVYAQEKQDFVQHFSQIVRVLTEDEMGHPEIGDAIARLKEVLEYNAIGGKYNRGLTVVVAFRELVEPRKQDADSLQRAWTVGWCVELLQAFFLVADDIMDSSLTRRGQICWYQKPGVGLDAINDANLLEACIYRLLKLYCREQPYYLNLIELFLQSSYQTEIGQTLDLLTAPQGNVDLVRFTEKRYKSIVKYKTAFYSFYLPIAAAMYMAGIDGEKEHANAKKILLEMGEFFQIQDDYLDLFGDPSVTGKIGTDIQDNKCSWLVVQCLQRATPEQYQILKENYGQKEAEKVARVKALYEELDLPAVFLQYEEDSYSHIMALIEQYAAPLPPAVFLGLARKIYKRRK
Kind of series: FPPS Assay: LC-MS Method. It is filed as biochemical. The following applies: GPP/IPP 5 μM each, reaction stopped after 10 minutes. As to the method: Recombinant human Farnesyl Pyrophosphate synthase (FPPS) was cloned, expressed and purified as previously described {J.-M. Rondeau et al., ChemMedChem 2006, 1, 267-271.} and stored as a 10 mg/mL stock solution in 25 mM Tris pH 7.4, 25 mM NaCl, 2 mM DTT (dithiothreitol). Geranyl pyrophosphate (GPP) was purchased from Anawa AG (Switzerland) and stored as a 1 mg/mL solution in 4 parts isopropanol:3 parts ammonia:1 part water. 1-[^3H]Isopentenyl pyrophosphate (IPP), 50 Ci/mmol; 1 Ci/mL, was purchased from Anawa AG and stored in ethanol:ammonia hydroxide 1:1 at −80 C. 1-[^3H] Farnesyl pyrophosphate triammonium salt, 100 Ci/mmol; 1 mCi/mL in 70% ethanol, 0.25 M ammonium bicarbonate was purchased from Anawa AG. Phospholipid-coated 384-well image FlashPlates™ were purchased from PerkinElmer. the assay buffer consisted of 20 mM HEPES pH7.4, 5 mM MgCl2 and 1 mM CaCl2.
Selected compounds are assayed in another FPPS based assay:
Into each well of a 384-well plate, 5 μL of compound in 20% DMSO/water is placed. 25 μL of GPP/IPP (5 μM each in assay buffer) is then added. The reaction is started with the addition of 10 μL of FPPS (diluted 1 to 10000 with assay buffer). After 10 minutes, the reaction is stopped by addition of 10 μL of 2 μM FSPP in 2% DMIPA/IPA. The reaction mixture is then extracted with 50 μL of n-pentanol using vortex mixing. After phase separation, 25 μL of the upper (n-pentanol) layer is transferred to a new 384-well plate and the pentanol is evaporated using a vacuum centrifuge. The dried residue is reconstituted in 50 μL of 0.1% DMIPA/water for analysis by the LC/MS/MS method.
LC/MS/MS analyses are performed on a Micromass Quattro Micro interfaced to an Agilent 1100 binary LC pump. Injection is performed by a Gilson 215/889 autosampler using an injection loop size of 2.5 μL. Chromatography is performed on a Waters 2.1×20 mm Xterra MS C18 5 μm guard column (P/N186000652) contained in a guard column holder (P/N 186000262) using 0.1% DMIPA/methanol as solvent A and 0.1% DMIPA/water as solvent B. The gradient is 5% A from 0.00 to 0.30 min, 50% A at 0.31 min, 80% A at 1.00 min, and 5% A from 1.01 to 2.00 min. The flow rate is 0.3 mL/min and the flow is diverted to waste from 0.00 to 0.50 min and again from 1.20 to 2.00 min.
The MRM transitions monitored are 381^−>79^− for FPP and 397^−>159^− for FSPP at a collision energy of 22 eV and a collision cell pressure of 2.1×10^−3 mbar of Ar. The dwell time per transition is 400 msec with a span of 0.4 Da. The interchannel delay and interscan delay are both 0.02 sec. Other mass spectrometric operating parameters are: capillary, 2.0 kV; cone, 35 V; extractor, 2.0 V, source temp., 100° C.; desolvation gas temp., 250° C.; desolvation gas flow, 650 L/hr; cone gas flow, 25 L/hr; multiplier, 650 V.
The total cycle time per sample is 2.5 minutes. Since the analysis is formatted for 384-well plates, a plate is analyzed in 16 hours. The chromatograms are processed using Quanlynx software, which divides the area of individual FPP peaks by the area of the FSPP peaks (internal standard). The resulting values are reported as the relative response for the corresponding sample well.

As for `CCOC(=O)Nc1cc(-c2cccc3ccccc23)c2nc(C(=O)O)ccc2c1` [Example 29, 6-Ethoxycarbonylamino-8-naphthalen-1-yl-quinoline-2-carboxylic acid], the melting point fell in the range of 205 to 208 °C. The same molecule had an IC50 in series [1] of 37 nM.

In turn, `CCOc1c(N)cc(-c2cccc3ccccc23)c2nc(C(=O)O)ccc12` [Example 30, 6-Amino-5-ethoxy-8-naphthalen-1-yl-quinoline-2-carboxylic acid] returned a melting point of 182 to 184 °C. Further, in series [1], the 50% inhibitory concentration (IC50) came to 24 nM.

In series [1], `O=C(O)c1ccc2cc(I)cc(-c3cccc4ccccc34)c2n1` [Example 32, 6-Iodo-8-naphthalen-1-yl-quinoline-2-carboxylic acid lithium salt] came in with an IC50 of 160 nM.

Turning to `CCOc1c(I)cc(-c2cccc3ccccc23)c2nc(C(=O)O)ccc12` [Example 33, 5-Ethoxy-6-iodo-8-naphthalen-1-yl-quinoline-2-carboxylic acid lithium salt], in series [1], it took 56 nM to reach half-maximal inhibition (IC50).

The molecule `O=P(O)(O)c1ccc2cc(-c3ccsc3)cc(-c3cccc4ccccc34)c2n1` [Example 27c.ii] gave a half-maximal inhibitory concentration (IC50) in series [1] of 205 nM.

`Nc1cc(-c2cccc3ccccc23)c2nc(C(=O)O)ccc2c1` [Example 31, 6-Amino-8-naphthalen-1-yl-quinoline-2-carboxylic acid] had a half-maximal inhibitory concentration (IC50) in series [1] of 69 nM.

In turn, `Nc1cccc2c(-c3cccc4ccc(C(=O)O)nc34)cccc12` [Example 39, 8-(5-Amino-naphthalen-1-yl)-quinoline-2-carboxylic acid] gave an IC50 in series [1] of 267 nM.

For the molecule `CS(=O)(=O)Nc1cc(-c2cccc3ccccc23)c2nc(/C=C/P(=O)(O)O)ccc2c1` [Example 46, [(E)-2-(6-Methanesulfonylamino-8-naphthalen-1-yl-quinolin-2-yl)-vinyl]-phosphonic acid], it took 91 nM to reach half-maximal inhibition in series [1] (IC50).

In series [1], `COC(=O)Nc1cc(-c2cccc3ccccc23)c2nc(/C=C/P(=O)(O)O)ccc2c1` [Example 44, [(E)-2-(6-Methoxycarbonylamino-8-naphthalen-1-yl-quinolin-2-yl)-vinyl]-phosphonic acid] came in with an IC50 of 14 nM.

As for `O=C(O)c1ccc2cc(-c3cccs3)cc(-c3cccc4ccccc34)c2n1` [Example 35, 8-Naphthalen-1-yl-6-thiophen-2-yl-quinoline-2-carboxylic acid lithium salt], the IC50 in series [1] was determined as 311 nM.

`Nc1cc(-c2cccc3ccccc23)c2nc(/C=C/P(=O)(O)O)ccc2c1` [Example 42, [(E)-2-(6-Amino-8-naphthalen-1-yl-quinolin-2-yl)-vinyl]-phosphonic acid]: inhibition in series [1] was half-maximal at 9 nM (IC50).

With `O=P(O)(O)c1ccc2cc(-c3cccs3)cc(-c3cccc4ccccc34)c2n1` [Example 17, (8-Naphthalen-1-yl-6-thiophen-2-yl-quinolin-2-yl)-phosphonic acid], the IC50 in series [1] was found to be 266 nM.

`CC(=O)Nc1cc(-c2cccc3ccccc23)c2nc(/C=C/P(=O)(O)O)ccc2c1` [Example 45, [(E)-2-(6-Acetylamino-8-naphthalen-1-yl-quinolin-2-yl)-vinyl]-phosphonic acid]: the midpoint of inhibition in series [1], the IC50, lay at 26 nM.

As for `O=C(Nc1cc(-c2cccc3ccccc23)c2nc(/C=C/P(=O)(O)O)ccc2c1)c1cccnc1` [Example 48, ((E)-2-{8-Naphthalen-1-yl-6-[(pyridine-3-carbonyl)-amino]-quinolin-2-yl}-vinyl)phosphonic acid], in series [1], the IC50 came out at 12 nM.

For `O=C(O)c1ccc2cc(-c3ccsc3)cc(-c3cccc4ccccc34)c2n1` [Example 34, 8-Naphthalen-1-yl-6-thiophen-3-yl-quinoline-2-carboxylic acid], the melting point fell in the range of 164 to 166 °C. In series [1], this molecule displayed an IC50 of 100 nM.

In series [1], `O=P(O)(O)c1ccc2cc(-c3ccco3)cc(-c3cccc4ccccc34)c2n1` [Example 27d.ii] displayed an IC50 of 900 nM.

For the molecule `O=[N+]([O-])c1cc(-c2cccc3ccccc23)c2nc(/C=C/P(=O)(O)O)ccc2c1` [Example 43, [(E)-2-(6-Nitro-8-naphthalen-1-yl-quinolin-2-yl)-vinyl]-phosphonic acid], in series [1], half-maximal inhibition (IC50) was put at 103 nM.

As for `O=P(O)(O)c1ccc2cc(-c3cccc(O)c3)cc(-c3cccc4ccccc34)c2n1` [Example 28, [6-(3-Hydroxy-phenyl)-8-naphthalen-1-yl-quinolin-2-yl]-phosphonic acid], in series [1], the half-maximal inhibitory concentration (IC50) was 606 nM.

Regarding `CCOC(=O)Nc1cc(-c2cccc3ccccc23)c2nc(-c3nn[nH]n3)ccc2c1` [Example 50, N-[8-Naphthalen-1-yl-2-(2H-tetrazol-5-yl)-quinolin-6-yl]-carbamic acid ethyl ester], the IC50 in series [1] stood at 19 nM.

In general, melting point refers to the temperature of the solid-liquid transition. A word on the IC50: it is the concentration that inhibits the measured activity by half. Lower therefore signals higher potency.

Source of the values: patent US20120094958A1, “QUINOLINES AS INHIBITORS OF FARNESYL PYROPHOSPHATE SYNTHASE” (NOVARTIS AG, priority 2008, published 2012).
